{"source": "patent US20240075093A1", "about": "“COMPOSITIONS AND METHODS OF TREATING A PI3K MEDIATED DISEASE” (VIRGINIA TECH INTELLECTUAL PROPERTIES, INC., priority 2020, published 2024)", "key": {"U87MG cells": {"test_system": "U87MG cells", "experiment": "MTS cell viability assay", "assay_type": "cell-based, human", "conditions": "20 μM TGX-221/50 μM TMZ plus αCT1", "description": "Cell viability was measured by the MTS assay. P values were determined using the student t test or one-way ANOVA. Error bars represent three independent experiments.\nCell viability was determined using the MTS viability assay. The vehicle DMSO was the control and set as 100%. Treated cells were normalized to DMSO-treated cells. […] (FIG. 43D) Scores of Excess Over Bliss in FIG. 43C calculated using the Bliss Independence model. One-way ANOVA and student t test were used to determine statistical significance.\nCell viability was determined by the MTS cell viability assay (Promega) as described previously 21,24-27. In brief, 250 to 1,000 cells were plated in the wells of a 96-well plate-based upon the cell growth rate. Because the drug treatment usually takes 6-7 days, fast-growing cells could be over-grown if plated at a high cell density. For αCT1 treatment experiments, Applicant intended to plate cells at a low density to minimize the formation of gap junctions, and thus, more Cx43-hemichannels can be present. […] At each hour time point, the absorbance at 490 nm was measured using a FilterMax F3 microplate reader (Molecular Devices, LLC) according to the manufacturer's instructions. Percent cell viability was obtained by dividing the absorbance of treatment groups to those of untreated and respective vehicle control groups."}, "half-life of αCT1": {"experiment": "half-life of αCT1", "assay_type": "in vitro ADME", "conditions": "cell culture treatment"}, "UACC-62 xenografts": {"test_system": "UACC-62 xenografts", "experiment": "UACC-62 subcutaneous xenograft", "assay_type": "in vivo, Nod scid mice", "conditions": "3 mg/kg, intratumoral injection daily, 16 days", "description": "(§1) (FIG. 52A) Cells were treated with 10 μM Selectide-18-FITC for 1 h and imaged immediately or after 96h. (FIG. 52B) Selectide-18-FITC in melanoma cells were imaged at different times. FITC was quantified using Image J and FITC intensities at different times were normalized with that at 1 h. Half-life was calculated using GraphPad. (FIG. 52C) UACC-62, MelST, or MeWo cells were treated with 50 μM of Selectide-18 for 4 days with daily repeated dosing. (FIG. 52D) MelST or melanoma cells were treated with 50 μM of Selectide-18 for 6 days with daily repeated dosing. Cell viability was measured using Cell-Titer Blue. (FIG. 52E) MelST, UACC-62, or MeWo cells were treated with Scramble or Selectide-18 at different doses. IC50s were calculated using GraphPad. (FIG. 52F) Nod scid mice bearing UACC-62 subcutaneous tumors were treated with Selectide-18 (3 mg/kg) intratumoral injection/daily) for 16 days. Tumors were measured using a caliper and tumor volumes were calculated as (length×width2))/2. Student t test or ANOVA was used to determine P values. ns: not significant; **: P<0.01; ***P<0.001."}, "[1]": {"experiment": "uptake and intracellular half-life of Selectide-18-FITC", "assay_type": "cell-based", "conditions": "human, SKMEL-147 melanoma cells (intracellular); FITC intensity normalized to 1 h; read-out: half-life (HL) in cells (converted)", "description": "as §1"}, "melanocyte MelST": {"test_system": "melanocyte MelST", "assay_type": "cell-based", "description": "(FIG. 49A) Immunoblotting of p110s and signaling molecules. 3-actin (ACTB) was used as the loading control. (FIG. 49B) Summary of genetic mutations and protein levels in melanoma cells. Information regarding hot spot mutations was retrieved from e.g., DepMap. […] Cell viability was measured using CellTiter Blue. IC50s were calculated using Graphpad.\nas §1, with “Student t test or ANOVA was used to determine P values. ns: not significant; **: P<0.01; ***P<0.001.” left out"}, "PI3K in MelST cells": {"test_system": "PI3K in MelST cells", "experiment": "PI3K activity after Selectide-18", "assay_type": "cell-based", "conditions": "50 μM, 4 days, daily repeated dosing", "description": "as §1"}, "PI3K in MeWo cells": {"test_system": "PI3K in MeWo cells", "experiment": "PI3K activity after Selectide-18", "assay_type": "cell-based", "conditions": "50 μM, 4 days, daily repeated dosing", "description": "as §1"}, "PI3K in UACC-62 cells": {"test_system": "PI3K in UACC-62 cells", "experiment": "PI3K activity after Selectide-18", "assay_type": "cell-based", "conditions": "50 μM, 4 days, daily repeated dosing", "description": "as §1"}, "other melanoma cells": {"test_system": "other melanoma cells", "experiment": "melanoma cell viability (CellTiter Blue)", "assay_type": "cell-based", "conditions": "50 μM Selectide-18, 6 days, daily repeated dosing", "description": "as §1"}, "[2]": {"experiment": "intracellular half-life of Selectide-18-FITC", "assay_type": "cell-based", "conditions": "human, UACC-62 melanoma cells (intracellular); FITC intensity normalized to 1 h; read-out: half-life (HL) in cells (converted)", "description": "as §1"}, "MDA-MB-435S cells": {"test_system": "MDA-MB-435S cells", "experiment": "melanoma cell viability (CellTiter Blue)", "assay_type": "cell-based", "conditions": "50 μM, 6 days, daily repeated dosing", "description": "(§2) (FIG. 49A) Immunoblotting of p110s and signaling molecules. 3-actin (ACTB) was used as the loading control. (FIG. 49B) Summary of genetic mutations and protein levels in melanoma cells. Information regarding hot spot mutations was retrieved from e.g., DepMap. (FIG. 49C) Cells were treated with 0-40 μM of inhibitors. Cell viability was measured using CellTiter Blue. IC50s were calculated using Graphpad.\nas §1"}, "p110β^hyper cells": {"test_system": "p110β^hyper cells", "experiment": "melanoma cell viability (CellTiter Blue)", "assay_type": "cell-based", "conditions": "50 μM Selectide-18, 6 days, daily repeated dosing", "description": "as §2, §1"}}, "note": "Where no end group is shown, it is not given here.", "data": [{"sequence": "RQPKIWFPNRRKPWKKRPRPDDLEI [αCT1]", "values": [{"measurement": "cytotoxic effect of TMZ/TGX-221 double combination upon addition of αCT1", "setting": "U87MG cells", "result": "greatly increased the cytotoxic effect"}, {"measurement": "half-life", "setting": "half-life of αCT1", "result": "~48", "unit": "h"}]}, {"sequence": "TKKSTKTINPSKYQTIRK [Selectide-18]", "values": [{"measurement": "in vivo growth of xenografts", "setting": "UACC-62 xenografts", "result": "blocked the in vivo growth"}, {"measurement": "half-life", "setting": "[1]", "result": 138, "unit": "h"}, {"measurement": "IC50", "setting": "melanocyte MelST", "result": "~2000", "unit": "µM"}, {"measurement": "PI3K activity", "setting": "PI3K in MelST cells", "result": "not"}, {"measurement": "PI3K activity", "setting": "PI3K in MeWo cells", "result": "not"}, {"measurement": "PI3K activity", "setting": "PI3K in UACC-62 cells", "result": "inactivated PI3K"}, {"measurement": "cell viability", "setting": "other melanoma cells", "result": "without affecting"}, {"measurement": "half-life", "setting": "[2]", "result": 77, "unit": "h"}, {"measurement": "sensitivity to Selectide-18", "setting": "MDA-MB-435S cells", "result": "sensitive"}, {"measurement": "cell viability", "setting": "p110β^hyper cells", "result": "suppressed the viability"}]}]}
